The target of one assay is PDE4 (Homo sapiens, UniProt Q08499). Kind of assay: In-vitro assay for PDE4 enzymes, real-time enzyme-coupled spectrophotometric assay (Table 9). Format: biochemical. The following applies: human PDE4D; activity class, Table 9; read-out: hPDE4D.
In a further assay the target is PDE4B (Homo sapiens, UniProt Q07343). Put plainly: In-vitro assay for PDE4 enzymes, real-time enzyme-coupled spectrophotometric assay, PDE4B Activity (Table 10). Format: biochemical. The conditions noted are these: human PDE4B (hPDE4B), enzyme-coupled spectrophotometric assay; read-out: PDE4B Activity, hPDE4B.
PDE4B, sequence (Q07343 whole entry): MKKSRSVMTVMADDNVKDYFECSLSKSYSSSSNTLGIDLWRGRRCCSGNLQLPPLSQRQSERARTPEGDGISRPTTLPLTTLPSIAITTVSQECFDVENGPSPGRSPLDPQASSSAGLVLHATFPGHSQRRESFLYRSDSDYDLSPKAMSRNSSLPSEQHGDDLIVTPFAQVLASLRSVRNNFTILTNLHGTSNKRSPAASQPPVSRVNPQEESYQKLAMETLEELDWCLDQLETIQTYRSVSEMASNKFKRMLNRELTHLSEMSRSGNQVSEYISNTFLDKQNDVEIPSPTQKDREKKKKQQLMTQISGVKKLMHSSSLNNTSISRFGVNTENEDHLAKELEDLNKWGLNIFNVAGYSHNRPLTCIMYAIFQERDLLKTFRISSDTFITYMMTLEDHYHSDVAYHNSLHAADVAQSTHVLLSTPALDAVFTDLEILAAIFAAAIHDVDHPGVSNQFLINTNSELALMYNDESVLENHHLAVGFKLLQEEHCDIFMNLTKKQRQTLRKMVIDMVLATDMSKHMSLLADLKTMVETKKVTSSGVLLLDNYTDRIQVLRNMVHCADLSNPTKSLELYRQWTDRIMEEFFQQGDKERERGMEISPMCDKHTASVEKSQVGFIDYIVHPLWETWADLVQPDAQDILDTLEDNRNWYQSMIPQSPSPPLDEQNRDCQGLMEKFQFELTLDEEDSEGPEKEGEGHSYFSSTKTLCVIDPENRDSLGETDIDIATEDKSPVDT

Where a name gives a salt, the structure may show the parent alone. Some results are limits rather than exact numbers.

PDE4, sequence (Q08499 whole entry): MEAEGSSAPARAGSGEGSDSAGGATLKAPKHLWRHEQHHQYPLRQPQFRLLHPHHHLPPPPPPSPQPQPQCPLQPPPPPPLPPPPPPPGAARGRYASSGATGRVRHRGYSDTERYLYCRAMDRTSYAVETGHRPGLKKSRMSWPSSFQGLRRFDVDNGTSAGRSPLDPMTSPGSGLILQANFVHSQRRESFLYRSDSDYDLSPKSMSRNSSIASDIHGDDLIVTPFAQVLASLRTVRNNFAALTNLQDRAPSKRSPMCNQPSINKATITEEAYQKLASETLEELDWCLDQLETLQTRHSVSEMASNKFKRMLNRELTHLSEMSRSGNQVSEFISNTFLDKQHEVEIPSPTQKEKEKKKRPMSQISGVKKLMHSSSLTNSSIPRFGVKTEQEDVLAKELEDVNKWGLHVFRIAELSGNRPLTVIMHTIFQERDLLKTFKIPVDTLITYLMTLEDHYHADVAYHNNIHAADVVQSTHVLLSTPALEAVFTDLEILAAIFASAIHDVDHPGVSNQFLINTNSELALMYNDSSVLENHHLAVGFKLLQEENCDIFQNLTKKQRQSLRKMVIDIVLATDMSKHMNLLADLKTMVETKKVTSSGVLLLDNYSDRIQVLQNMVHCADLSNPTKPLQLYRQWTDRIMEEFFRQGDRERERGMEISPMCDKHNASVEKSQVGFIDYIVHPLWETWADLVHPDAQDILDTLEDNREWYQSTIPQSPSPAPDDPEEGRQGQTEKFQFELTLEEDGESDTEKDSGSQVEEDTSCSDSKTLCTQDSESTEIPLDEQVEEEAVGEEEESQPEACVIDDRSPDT

Take `COc1ccc(Cc2ccc(-n3cnnn3)cc2)c(F)c1-c1cccc(Cl)c1` [P-404, 1-[4-(3′-chloro-2-fluoro-6-methoxy-biphenyl-3-ylmethyl)-phenyl]-1H-tetrazole]: the IC50 on PDE4 and on PDE4B was less than 5 µM each time.

For the compound `CCNC(=O)Nc1ccc(Cc2ccc(OC)c(-c3cccc(C#N)c3)c2F)cn1` [P-405, 1-[5-(3′-Cyano-2-fluoro-6-methoxy-biphenyl-3-ylmethyl)-pyridin-2-yl]-3-ethyl-urea hydrochloride salt], the IC50 on PDE4 and at PDE4B was less than 5 µM throughout.

Regarding `COc1ccc(Cc2cnc(O[C@@H]3CCN(C)C3)nc2)c(F)c1-c1cccc(Cl)c1` [P-406, 5-(3′-Chloro-2-fluoro-6-methoxy-biphenyl-3-ylmethyl)-2-((R)-1-methyl-pyrrolidin-3-yloxy)-pyrimidine], the IC50 on PDE4 and at PDE4B was less than 5 µM throughout.

With `COc1ccc(Cc2ccc(NCCO)nc2)c(F)c1-c1cccc(Cl)c1` [P-411], the IC50 at PDE4 and at PDE4B was less than 5 µM in each case.

Consider `COc1ccc(Cc2ccc(-n3cncn3)nc2)c(F)c1-c1cccc(Cl)c1` [P-412], for which the IC50 at PDE4 and on PDE4B was less than 5 µM each time.

`COc1ccc(Cc2ccc(NC(N)=O)cc2)c(F)c1-c1cccc(C#N)c1` [P-413]: the IC50 at PDE4 and at PDE4B was less than 5 µM throughout.

Turning to `COc1ccc(Cc2ccc(C(N)=O)nc2)c(F)c1-c1cccc(C#N)c1` [P-415, 5-(3′-Cyano-2-fluoro-6-methoxy-biphenyl-3-ylmethyl)-pyridine-2-carboxylic acid amide], the IC50 on PDE4 and on PDE4B was less than 5 µM in each case.

As for `COc1ccc(Cc2cnc(N3CC(O)C3)nc2)c(F)c1-c1cccc(C#N)c1` [P-417, 2′-Fluoro-3′-[2-(3-hydroxy-azetidin-1-yl)-pyrimidin-5-ylmethyl]-6′-methoxy-biphenyl-3-carbonitrile], the IC50 at PDE4 and at PDE4B was less than 5 µM throughout.

For `NC(=O)Nc1ccc(Cc2ccc(OC(F)F)c(-c3cccc(Cl)c3)c2)cc1` [P-420], the IC50 on PDE4 and at PDE4B was less than 5 µM in each case.

As for `NC(=O)Nc1ccc(Cc2ccc(O)c(-c3cccc(Cl)c3)c2)cc1` [P-421, [4-(3′-Chloro-6-hydroxy-biphenyl-3-ylmethyl)-phenyl]-urea], the IC50 at PDE4 and on PDE4B was less than 5 µM each time.

Regarding `COc1ccc(Cc2ccc(-n3cnnn3)nc2)c(F)c1-c1cccc(Cl)c1` [P-422, 5-(3′-chloro-2-fluoro-6-methoxy-biphenyl-3-ylmethyl)-2-tetrazol-1-yl-pyridine], the IC50 on PDE4 and at PDE4B was less than 5 µM in each case.

Take `COc1ccc(Cc2ccc3nc(C(N)=O)cn3c2)c(F)c1-c1cccc(Cl)c1` [P-429, 6-(3′-chloro-2-fluoro-6-methoxy-biphenyl-3-ylmethyl)-imidazo[1,2-a]pyridine-2-carboxylic acid amide]: the IC50 at PDE4 and at PDE4B was less than 5 µM throughout.

As for `COc1ccc(Cc2ccc(N3CCN(C(N)=O)CC3)nc2)c(F)c1-c1cccc(Cl)c1` [P-432], the IC50 at PDE4 and on PDE4B was less than 5 µM in each case.

As for `COc1ccc(Cc2ccnc(C#N)c2)c(F)c1-c1cccc(Cl)c1` [P-433, 4-(3′-Chloro-2-fluoro-6-methoxy-biphenyl-3-ylmethyl)-pyridine-2-carbonitrile], the IC50 at PDE4 and at PDE4B was less than 5 µM each time.

For the compound `COc1ccc(Cc2ccnc(CN)c2)c(F)c1-c1cccc(Cl)c1` [P-437, C-[4-(3′-Chloro-2-fluoro-6-methoxy-biphenyl-3-ylmethyl)-pyridin-2-yl]-methylamine], the IC50 on PDE4 and at PDE4B was less than 5 µM in each case.

As for `COc1ccc(Oc2ccc(N)nc2)c(F)c1-c1cccc(C#N)c1` [P-439, 5-(3′-Cyano-2-fluoro-6-methoxy-biphenyl-3-yloxy)-pyridin-2-yl-ammonium chloride], the IC50 on PDE4 and at PDE4B was less than 5 µM each time.

On to `CCNC(=O)Nc1ccc(Oc2ccc(OC)c(-c3cccc(C#N)c3)c2F)cn1` [P-440, 1-[5-(3′-Cyano-2-fluoro-6-methoxy-biphenyl-3-yloxy)-pyridin-2-yl]-3-ethyl-urea], for which the figures for the IC50 on PDE4 and on PDE4B were less than 5 µM and 5 to 20 µM, respectively.

With `COc1ccc(C(C)(O)c2ccc(NC(N)=O)cc2)c(F)c1-c1cccc(Cl)c1` (stereo not drawn) [P-441, {4-[1-(3′-chloro-2-fluoro-6-methoxy-biphenyl-3-yl)-1-hydroxy-ethyl]-phenyl}-urea], the IC50 at PDE4 was less than 5 µM; on PDE4B it was 5 to 20 µM.

With `COc1ccc(Cc2ccc3cnc(C(N)=O)n3c2)c(F)c1-c1cccc(Cl)c1` [P-445, 6-(3′-chloro-2-fluoro-6-methoxy-biphenyl-3-ylmethyl)-imidazo[1,5-a]pyridine-3-carboxylic acid amide], the IC50 was less than 5 µM at PDE4 and 5 to 20 µM on PDE4B.

Consider `COc1ccc(Sc2ccc(N)cc2)cc1-c1cccc(Cl)c1` [P-447, 4-(3′-Chloro-6-methoxy-biphenyl-3-ylsulfanyl)-phenylaammonium chloride], for which the IC50 on PDE4 and on PDE4B was less than 5 µM each time.

On to `CCNC(=O)Nc1ccc(Sc2ccc(OC)c(-c3cccc(Cl)c3)c2)cc1` [P-448, 1-[4-(3′-Chloro-6-methoxy-biphenyl-3-ylsulfanyl)-phenyl]-3-ethyl urea], for which the IC50 on PDE4 and on PDE4B was less than 5 µM each time.

As to `O=[N+]([O-])c1cccc(-c2c(O)ccc(Cc3ccc(F)cc3)c2F)c1` [P-451], the IC50 on PDE4 and at PDE4B was less than 5 µM each time.

In the case of `COc1ccc(Cc2ccc(N)cc2)c(F)c1-c1cccc(Br)c1` [P-453], the IC50 at PDE4 and at PDE4B was less than 5 µM each time.

With `COc1ccc(Cc2ccc(F)nc2)c(F)c1-c1cccc(Cl)c1` [P-456, 5-(3′Chloro-2-fluoro-6-methoxy-biphenyl-3-ylmethyl)-2-fluoro-pyridine], the IC50 at PDE4 and at PDE4B was less than 5 µM throughout.

With `COc1ccc(Cc2ccc(N3CC(O)C3)nc2)c(F)c1-c1cccc(Cl)c1` [P-457, 1-[5-(3′-Chloro-2-fluoro-6-methoxy-biphenyl-3-ylmethyl)-pyridin-2-yl]-azetidin-3-ol], the IC50 at PDE4 and on PDE4B was less than 5 µM each time.

Regarding `COc1ccc(Cc2cnc(N(C)CCO)nc2)c(F)c1-c1cccc(Cl)c1` [P-458, 2-{[5-(3′-Chloro-2-fluoro-6-methoxy-biphenyl-3-ylmethyl)-pyrimidin-2-yl]-methyl-amino}-ethanol], the IC50 at PDE4 and at PDE4B was less than 5 µM each time.

For `CNC(=O)NCc1ccc(Cc2ccc(OC)c(-c3cccc(Cl)c3)c2F)cn1` [P-460, 1-[5-(3′-Chloro-2-fluoro-6-methoxy-biphenyl-3-ylmethyl)-pyridin-2-ylmethyl]-3-methyl-urea hydrochloride], the IC50 on PDE4 and on PDE4B was less than 5 µM throughout.

As for `CCN1CCN(Cc2ccc(Cc3ccc(OC)c(-c4cccc(Cl)c4)c3F)cn2)C1=O` [P-461, 1-[5-(3′-Chloro-2-fluoro-6-methoxy-biphenyl-3-ylmethyl)-pyridin-2-ylmethyl]-3-ethyl-imidazolidin-2-one hydrochloride], the IC50 on PDE4 and at PDE4B was less than 5 µM each time.

With `COc1ccc(Cc2ccc(CN3CCOC3=O)nc2)c(F)c1-c1cccc(Cl)c1` [P-465, 3-[5-(3′-Chloro-2-fluoro-6-methoxy-biphenyl-3-ylmethyl)-pyridin-2-ylmethyl]-oxazolidin-2-one hydrochloride], the IC50 on PDE4 and on PDE4B was less than 5 µM throughout.

As to `COc1ccc(Cc2ccc(Nc3nccn3C)cc2)cc1-c1cccc(Cl)c1` [P-467, [4-(3′-Chloro-6-methoxy-biphenyl-3-ylmethyl)-phenyl]-(1-methyl-1H-imidazol-2-yl)-amine], the IC50 at PDE4 and at PDE4B was less than 5 µM in each case.

Consider `NC(=O)Nc1ccc(Cc2ccc(O)c(-c3cccc(Cl)c3)c2F)cc1` [P-468, [4-(3′-Chloro-2-fluoro-6-hydroxy-biphenyl-3-ylmethyl)-phenyl]-urea], for which the IC50 at PDE4 and on PDE4B was less than 5 µM throughout.

On to `COc1ccc(Cc2ccc(N3CCOC3=O)nc2)c(F)c1-c1cccc(Cl)c1` [P-469, 3-[5-(3′-Chloro-2-fluoro-6-methoxy-biphenyl-3-ylmethyl)-pyridin-2-yl]-oxazolidin-2-one], for which the IC50 on PDE4 and on PDE4B was less than 5 µM in each case.

As to `COc1ccc(Cc2ccc(N3CCN(C)C3=O)nc2)c(F)c1-c1cccc(Cl)c1` [P-470, 1-[5-(3′-Chloro-2-fluoro-6-methoxy-biphenyl-3-ylmethyl)-pyridin-2-yl]-3-methyl-imidazolidin-2-one], the IC50 at PDE4 and on PDE4B was less than 5 µM throughout.

For the compound `COc1ccc(Cc2ccc(NCC(N)=O)nc2)c(F)c1-c1cccc(Cl)c1` [P-471], the IC50 on PDE4 and at PDE4B was less than 5 µM throughout.

In the case of `COc1ccc(Cc2ccc(N(C)C)nc2)c(F)c1-c1cccc(Cl)c1` [P-473, [5-(3′-Chloro-2-fluoro-6-methoxy-biphenyl-3-ylmethyl)-pyridin-2-yl]-dimethyl-amine], the IC50 on PDE4 and on PDE4B was less than 5 µM in each case.

As to `COc1ccc(Cc2ccc(N)cn2)c(F)c1-c1cccc(Cl)c1` [P-478], the IC50 at PDE4 and on PDE4B was less than 5 µM each time.

As for `COc1ccc(Cn2cnc(-c3cccnc3)c2)c(F)c1-c1cccc(Cl)c1` [P-479, 3-[1-(3′-Chloro-2-fluoro-6-methoxy-biphenyl-3-ylmethyl)-1H-imidazol-4-yl]-pyridine], the IC50 on PDE4 is less than 5 µM; at PDE4B it was 5 to 20 µM.

For `COc1ccc(Cn2cncn2)cc1-c1ccc2nonc2c1` [P-481, 5-(2-Methoxy-5-[1,2,4]triazol-1-ylmethyl-phenyl)-benzo[1,2,5]oxadiazole], the IC50 was less than 5 µM on PDE4 and 5 to 20 µM on PDE4B.

As for `O=c1ccc(Cc2ccc(O)c(-c3cccc([N+](=O)[O-])c3)c2)n[nH]1` [P-488, 6-(6-Hydroxy-3′-nitro-biphenyl-3-ylmethyl)-2H-pyridazin-3-one], the IC50 on PDE4 was less than 5 µM; at PDE4B, 5 to 20 µM.

The values are drawn from patent US8791267B2, “Biaryl PDE4 inhibitors for treating inflammatory, cardiovascular and CNS disorders” (Decode Genetics EHF, priority 2007, dated 2014).
